Data from patent US7973012B2, “C-phenyl glycitol compound” (Taisho Pharmaceutical Co., Ltd, priority 2006, dated 2011).

What was measured:
human SGLT1 = target: T1, human SGLT1 (Homo sapiens, UniProt P13866); assay: Inhibition test of sodium-dependent sugar uptake in CHO-k1 cells stably expressing human SGLT1; assay type: cell-based; details: sugar uptake inhibition rate at 100 nM test compound vs control group
T1 construct: expressed in transfected cells; host or cells: CHO-k1
T1 sequence (P13866 1-664): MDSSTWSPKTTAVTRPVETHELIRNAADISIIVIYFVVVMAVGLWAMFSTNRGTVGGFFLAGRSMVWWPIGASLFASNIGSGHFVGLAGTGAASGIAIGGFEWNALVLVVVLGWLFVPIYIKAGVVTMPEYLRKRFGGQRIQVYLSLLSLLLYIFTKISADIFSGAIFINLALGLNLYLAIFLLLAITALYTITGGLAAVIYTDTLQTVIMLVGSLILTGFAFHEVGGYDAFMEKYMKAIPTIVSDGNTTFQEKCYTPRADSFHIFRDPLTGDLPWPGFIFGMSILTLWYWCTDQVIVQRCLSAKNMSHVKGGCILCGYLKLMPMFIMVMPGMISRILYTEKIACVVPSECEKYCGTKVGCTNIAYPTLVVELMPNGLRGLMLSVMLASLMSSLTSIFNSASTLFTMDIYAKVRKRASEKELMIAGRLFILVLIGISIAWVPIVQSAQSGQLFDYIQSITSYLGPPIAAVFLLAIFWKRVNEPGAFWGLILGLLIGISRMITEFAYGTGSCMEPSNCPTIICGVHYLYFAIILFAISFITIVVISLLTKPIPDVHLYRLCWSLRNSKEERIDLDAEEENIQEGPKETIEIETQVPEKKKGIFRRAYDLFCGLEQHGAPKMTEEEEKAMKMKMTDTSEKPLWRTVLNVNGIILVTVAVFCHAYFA
Protocol: (§1) An SGLT1 sequence (NM_000343) was reverse-transcripted from human small intestinal mRNA, then amplified, and then introduced into pCMV-tag5A from Stratagene Corporation. An SGLT2 sequence (NM_003041) was prepared from human nephric mRNA as with the above method, and then introduced into pcDNA3.1+hygro from Invitrogen Corporation. Each cloned sequence was confirmed to be identical with the reported sequence.
(§2) The human SGLT1 and human SGLT2 expression vectors were transfected into CHO-k1 cells by using Lipofectamine 2000 from Invitrogen Corporation. The SGLT expression cells were incubated in the presence of Geneticin (SGLT1) or Hygromycin B (SGLT2) at a 500 μg/mL concentration to select resistant strains, and specific activity of sugar uptake was obtained as an indicator by the following system.
(§3) Cells stably expressing human SGLT1 and human SGLT2 were used for the inhibition test of sodium-dependent glucose uptake.
(§4) The cells were incubated in a pretreatment buffer A (200 μL for SGLT1, and 2 mL for SGLT2) for 20 minutes. The pretreatment buffer was removed and an uptake buffer B (75 μL for SGLT1, and 200 μL for SGLT2) containing a test compound was added to conduct an uptake reaction at 37° C. for 30 minutes (SGLT1) or an hour (SGLT2). After the reaction, the cells were washed with a washing buffer C twice (200 μL for SGLT1, and 2 mL for SGLT2), and then dissolved in a 0.2 M solution of NaOH (75 μL for SGLT1, and 400 μL for SGLT2). After a liquid scintilater was added thereto and mixed sufficiently, radioactivity was measured with microBETA (SGLT1) or a liquid scintillation counter from Beckman Coulter, Inc (SGLT2). As a control group, an uptake buffer containing no test compound was prepared. In addition, as the basic uptake buffer, an uptake buffer B containing choline chloride instead of NaCl was prepared. • A pretreatment buffer A: 140 mM choline chloride, 2 mM KCl, 1 mM CaCl2, 1 mM MgCl2, 10 mM HEPES/5 mM Tris, pH 7.4. • An uptake buffer B: 1 mM of methyl α-D-glucopyranoside containing [^14C]methyl α-D-glucopyranoside, 140 mM NaCl, 2 mM KCl, 1 mM CaCl2, 1 mM MgCl2, 10 mM HEPES/5 mM Tris, pH 7.4. • A washing buffer C: 10 mM methyl α-D-glucopyranoside, 140 mM choline chloride, 2 mM KCl, 1 mM CaCl2, 1 mM MgCl2, 10 mM HEPES/5 mM Tris, pH 7.4.
(§5) In order to obtain IC50 values, test compounds having adequate 6 concentrations were used and the test compound concentrations (IC50 values) at which sugar uptake is inhibited by 50% in comparison with the amount of sugar uptake (100%) of the control group were calculated.
(§6) In addition, the sugar uptake inhibition rates at 100 nM concentration of the test compound in comparison with the control group are shown in Table 7.

human SGLT2 = target: T2, human SGLT2 (Homo sapiens, UniProt P31639); assay: Inhibition test of sodium-dependent sugar uptake in CHO-k1 cells stably expressing human SGLT2; assay type: cell-based; details: sugar uptake inhibition rate at 100 nM test compound vs control group
T2 construct: expressed in transfected cells; host or cells: CHO-k1
T2 sequence (P31639 1-672): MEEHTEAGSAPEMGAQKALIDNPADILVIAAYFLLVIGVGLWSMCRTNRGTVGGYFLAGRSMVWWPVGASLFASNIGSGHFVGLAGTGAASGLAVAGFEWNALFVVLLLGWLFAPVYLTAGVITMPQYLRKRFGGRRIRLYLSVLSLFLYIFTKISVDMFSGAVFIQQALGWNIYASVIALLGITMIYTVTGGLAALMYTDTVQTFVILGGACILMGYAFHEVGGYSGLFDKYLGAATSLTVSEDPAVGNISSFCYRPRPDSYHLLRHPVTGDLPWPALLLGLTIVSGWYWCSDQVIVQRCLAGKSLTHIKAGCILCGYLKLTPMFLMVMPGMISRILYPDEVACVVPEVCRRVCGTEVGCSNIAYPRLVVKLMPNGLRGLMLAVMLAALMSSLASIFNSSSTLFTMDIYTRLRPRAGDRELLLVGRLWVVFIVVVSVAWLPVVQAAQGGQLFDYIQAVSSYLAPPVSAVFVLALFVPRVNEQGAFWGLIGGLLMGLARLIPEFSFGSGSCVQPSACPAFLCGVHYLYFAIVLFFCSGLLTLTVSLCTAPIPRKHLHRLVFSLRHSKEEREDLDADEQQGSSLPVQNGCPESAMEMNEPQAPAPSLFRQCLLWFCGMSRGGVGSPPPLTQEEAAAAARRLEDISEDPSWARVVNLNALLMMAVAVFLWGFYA
Protocol: as §1, §2, §3, §4, §5, §6

SMILES	SGLT1 % inhibition at 100 nM (human SGLT1) [%]	SGLT2 % inhibition at 100 nM (human SGLT2) [%]
Cc1cc(O)c([C@@H]2O[C@H](CO)[C@@H](O)[C@H](O)[C@H]2O)cc1Cc1ccc(CCNC(=O)NC(C)(C)C)cc1 [Compound 39]	80	83
Cc1cc(O)c([C@@H]2O[C@H](CO)[C@@H](O)[C@H](O)[C@H]2O)cc1Cc1ccc(CCNC(=O)N[C@@H](Cc2ccccc2)C(N)=O)cc1 [Compound 40]	79	89
Cc1cc(O)c([C@@H]2O[C@H](CO)[C@@H](O)[C@H](O)[C@H]2O)cc1Cc1ccc(CCNC(=O)NCc2ccco2)cc1 [Compound 42]	78	87
Cc1cc(O)c([C@@H]2O[C@H](CO)[C@@H](O)[C@H](O)[C@H]2O)cc1Cc1ccc(CCNC(=O)NC(CO)C(C)C)cc1 (stereo partly drawn) [Compound 43]	77	86
Cc1cc(O)c(C2OC(CO)C(O)C(O)C2O)cc1Cc1ccc(CCNC(=O)NC(CO)CC(C)C)cc1 (stereo not drawn) [Compound 46]	74	91
CSCC[C@@H](CO)NC(=O)NCCc1ccc(Cc2cc([C@@H]3O[C@H](CO)[C@@H](O)[C@H](O)[C@H]3O)c(O)cc2C)cc1 [Compound 47]	73	89
Cc1cc(O)c([C@@H]2O[C@H](CO)[C@@H](O)[C@H](O)[C@H]2O)cc1Cc1ccc(CCNC(=O)N[C@H](CO)Cc2ccccc2)cc1 [Compound 48]	73	87
CCC(CO)NC(=O)NCCc1ccc(Cc2cc([C@@H]3O[C@H](CO)[C@@H](O)[C@H](O)[C@H]3O)c(O)cc2C)cc1 (stereo partly drawn) [Compound 50]	71	77
COc1cccc(CCNC(=O)NCCc2ccc(Cc3cc([C@@H]4O[C@H](CO)[C@@H](O)[C@H](O)[C@H]4O)c(O)cc3C)cc2)c1 [Compound 51]	71	84
Cc1cc(O)c([C@@H]2O[C@H](CO)[C@@H](O)[C@H](O)[C@H]2O)cc1Cc1ccc(CCNC(=O)NCCc2ccc(F)cc2)cc1 [Compound 52]	71	84
Cc1cc(O)c([C@@H]2O[C@H](CO)[C@@H](O)[C@H](O)[C@H]2O)cc1Cc1ccc(CCNC(=O)NCC(c2ccccc2)c2ccccc2)cc1 [Compound 53]	70	74
COC(=O)C(NC(=O)NCCc1ccc(Cc2cc(C3OC(CO)C(O)C(O)C3O)c(O)cc2C)cc1)C(C)(C)C (stereo not drawn) [Compound 54]	79	73
COc1ccc(CCNC(=O)NCCc2ccc(Cc3cc([C@@H]4O[C@H](CO)[C@@H](O)[C@H](O)[C@H]4O)c(O)cc3C)cc2)cc1OC [Compound 55]	69	69
CCCNC(=O)NCCc1ccc(Cc2cc([C@@H]3O[C@H](CO)[C@@H](O)[C@H](O)[C@H]3O)c(O)cc2C)cc1 [Compound 56]	68	77
COc1ccc(CCN(C)C(=O)NCCc2ccc(Cc3cc([C@@H]4O[C@H](CO)[C@@H](O)[C@H](O)[C@H]4O)c(O)cc3C)cc2)cc1OC [Compound 57]	68	51
Cc1cc(O)c([C@@H]2O[C@H](CO)[C@@H](O)[C@H](O)[C@H]2O)cc1Cc1ccc(CCNC(=O)N(CC(C)C)CC(C)C)cc1 [Compound 59]	67	86
Cc1cc(O)c([C@@H]2O[C@H](CO)[C@@H](O)[C@H](O)[C@H]2O)cc1Cc1ccc(CCNC(=O)NC(Cc2ccccc2)C(N)=O)cc1 (stereo partly drawn) [Compound 60]	66	91
Cc1cc(O)c([C@@H]2O[C@H](CO)[C@@H](O)[C@H](O)[C@H]2O)cc1Cc1ccc(CCNC(=O)NCc2cc3ccccc3s2)cc1 [Compound 61]	65	95
Cc1cc(O)c([C@@H]2O[C@H](CO)[C@@H](O)[C@H](O)[C@H]2O)cc1Cc1ccc(CCNC(=O)NCCCCc2ccccc2)cc1 [Compound 62]	65	79
Cc1cc(O)c([C@@H]2O[C@H](CO)[C@@H](O)[C@H](O)[C@H]2O)cc1Cc1ccc(CCNC(=O)NCCc2ccc(O)cc2)cc1 [Compound 63]	63	81
Cc1cc(O)c([C@@H]2O[C@H](CO)[C@@H](O)[C@H](O)[C@H]2O)cc1Cc1ccc(CCNC(=O)NCC2OCCO2)cc1 [Compound 64]	62	76
Cc1cc(O)c([C@@H]2O[C@H](CO)[C@@H](O)[C@H](O)[C@H]2O)cc1Cc1ccc(CCNC(=O)NCC2CCCO2)cc1 (stereo partly drawn) [Compound 65]	62	76
Cc1cc(O)c([C@@H]2O[C@H](CO)[C@@H](O)[C@H](O)[C@H]2O)cc1Cc1ccc(CCNC(=O)NCC(O)COc2ccccc2)cc1 (stereo partly drawn) [Compound 66]	62	83
Cc1cc(O)c([C@@H]2O[C@H](CO)[C@@H](O)[C@H](O)[C@H]2O)cc1Cc1ccc(CCNC(=O)NCCN2CCCCC2)cc1 [Compound 67]	61	82
